Reference: patent US7378433B2, “N-[4-(heteroarylmethyl)phenyl]-heteroarylamines” (Janssen Pharmaceutica, N.V., priority 1996, dated 2008)

Test system: RA-metabolism in MCF-7 human breast cancer cells
Assay: Inhibition of retinoic acid (RA) metabolism
Assay type: cell-based
Conditions: MCF7, concentration needed to reduce the amount of polar 3H-RA metabolites to 50% of the control, MCF-7 cells
Description: The property to delay the metabolism of retinoic acid can be evidenced in various in vitro and in vivo experiments. A particular in vitro procedure is described in example C.1 and tests the inhibitory activity of the compounds of formula (I) on the metabolism of retinoic acid in human breast cancer cells. The compounds of the present invention were also effective in suppressing induced vaginal keratinization effects in ovariectomized rats as is described in example C.2.
MCF-7 human breast cancer cells were grown as stock cultures according to art-known protocols. One day before the experiment, RA is added to the stock cultures to stimulate RA-metabolism. At the start of the experiment, cell suspensions were incubated in a tissue culture medium containing ^3H-RA as the substrate. Different concentrations of the test compound (dissolved in 1% DMSO) were added to the incubation mixtures, and at the end of the incubation, the unmetabolized RA is separated from its polar metabolites. The fraction containing the polar ^3H-labeled metabolites was collected and counted in a scintillation counter. For each experiment, a control and a blank incubation were run in parallel.

IC50 [nM] | Structure (SMILES)
< 10 | CCC(CC)C(c1ccc(Nc2nc3ccccc3s2)cc1)n1cncn1 (racemic) [Compound 25, (±)-N-[4-[2-ethyl-1-(1H-1,2,4-triazol-1-yl)butyl]phenyl]-2-benzothiazol-amine]
< 10 | Cc1csc(Nc2ccc(C(C(C)C)n3ccnc3)cc2)n1 (racemic) [Compound 50, (±)-N-[4-[1-(1H-imidazol-1-yl)-2-methylpropyl]phenyl]-4-methyl-2-thiazolamine]
< 10 | CC(C)C(c1ccc(Nc2nccs2)cc1)n1ccnc1 (racemic) [Compound 51, (±)-N-[4-[1-(1H-imidazol-1-yl)-2-methylpropyl]phenyl]-2-thiazolamine]
< 10 | c1ccc2sc(Nc3ccc(Cn4ccnc4)cc3)nc2c1 [Compound 24, N-[4-(1H-imidazol-1-ylmethyl)-phenyl]-2-benzothiazolamine]
< 10 | CCC(CC)C(c1ccc(Nc2nc3ccccc3o2)cc1)n1cncn1 (centres unmarked) [Compound 56, N-[4-[2-ethyl-1-(1H-1,2,4-triazol-1-yl)butyl]phenyl]-2-benzoxazolamine]
